Here are results for 5 molecules from PMC7529935 (European journal of medicinal chemistry, 2020).

Series [1] relates to HIV/EBOV pseudovirions (EBOV GP). In kind it is cell-based, Zaire Ebolavirus.
For series [2], the system named is HIV/MARV pseudovirions (MARV GP). As to the kind of experiment: microbe, parasite or virus in culture. In kind it is cell-based, Marburgvirus. The settings on record: Human immunodeficiency virus 1, A549, 48 h, read-out: IC50 for MARV.
The test system of series [3] is A549 cells.

As a reminder, the IC50 is the point on the concentration scale where inhibition reaches its midpoint.

As to `Cc1c(Cc2ccccc2)c(=O)oc2cc(OCC(O)CNCCc3ccncc3)ccc12` (centres unmarked) [Compound 13, 3-benzyl-7-(2-hydroxy-3-((2-(pyridin-4-yl)ethyl)amino)propoxy)-4-methyl-2H-chromen-2-one], the “antiviral activity against EBOV” value in series [1] is given as “best inhibitory activity on EBOV entry”.

For `Cc1cc(=O)oc2cc(OCC(O)CN3CCC(C(N)=O)CC3)ccc12` (centres unmarked) [Compound 19, 1-(2-hydroxy-3-((4-methyl-2-oxo-2H-chromen-7-yl)oxy)propyl)piperidine-4-carboxamide], the “antiviral activity (anti-filovirus, words)” value in series [1] is “lost most of the activity”.

Take `Cc1c(Cc2ccc(OC(F)(F)F)cc2)c(=O)oc2cc(OCC(O)CN3CCC(C(N)=O)CC3)ccc12` (centres unmarked) [Compound 32, 1-(2-hydroxy-3-((4-methyl-2-oxo-3-(4-(trifluoromethoxy)benzyl)-2H-chromen-7-yl)oxy)propyl)piperidine-4-carboxamide]: the “antiviral activity against EBOV” value in series [1] is listed as “strongest antiviral activity against EBOV”. Also, in series [2], the IC50 worked out at 1500 nM. In addition, the “cytotoxicity” value in series [3] is “low cytotoxicity”.

Consider `NC(=O)C1CCN(CC(O)COc2ccc3c(C4CC4)cc(=O)oc3c2)CC1` (centres unmarked) [Compound 55, 1-(3-((4-cyclopropyl-2-oxo-2H-chromen-7-yl)oxy)-2-hydroxypropyl)piperidine-4-carboxamide], for which, in series [1], the “antiviral activity (anti-filovirus, words)” value is “lost most of the antiviral activity”.

Take `Cc1c(Cc2ccc(OC(F)(F)F)cc2)c(=O)oc2cc(OCC(O)CNc3nccs3)ccc12` (centres unmarked) [Compound 56, 7-(2-hydroxy-3-(thiazol-2-ylamino)propoxy)-4-methyl-3-(4-(trifluoromethoxy)benzyl)-2H-chromen-2-one]: in series [1], the “antiviral activity (anti-filovirus, words)” value is recorded as “strong activity”. Besides, in series [3], the “cytotoxicity” value is “low cytotoxicity”.
